Laboratory results: patent EP4806892A1, “CEREBLON E3 UBIQUITIN LIGASE INHIBITOR” (GAN & LEE PHARMACEUTICALS CO., LTD., priority 2023, dated 2025)
pIC50: −log10 of the molar value.

Experiments:
LNCAP cell = assay: LNCaP cell proliferation inhibition (WST-8); type: cell-based; conditions: Homo sapiens, LNCaP FGC cells, 96 hours, read-out: IC50 for inhibiting LNCAP cell proliferation
Procedure: LNCaP FGC cells (ATCC, CLR-1740) were cultured in RPMI 1640 (ATCC, 30-2001) complete medium supplemented with 10% fetal bovine serum (Hyclone, SH30406.05). On the first day of the experiment, LNCaP FGC cells were seeded at a density of 5,000 cells/well in 96-well plates using RPMI 1640 medium supplemented with 10% fetal bovine serum, with 100 µL of cell suspension per well. The cells were cultured overnight in a 37°C, 5% CO2 cell incubator. On the second day, 100 µL of different concentrations of the compound to be tested and the positive control sample ARV-766 (source: Energy Chemical) prepared in culture medium were added to each well. The final concentration of the compound was 9 concentration points of 5-fold serial dilution starting from 10 µM. The wells to which 100 µL of RPMI 1640 culture medium containing 10% fetal bovine serum was added were set as controls. The cells were cultured in a cell culture incubator at 37°C and 5% CO2 for 96 hours. On the sixth day, the 96-well cell culture plate was removed, and 1/10 volume of WST-8 (Beytime, C0040) reagent was added to each well. The absorbance at 450 nm was detected using a microplate reader (TECAN, F50).

AR protein = target: T1, AR protein (Homo sapiens, UniProt P10275, T878A); assay: AR protein degradation in LNCaP cells (Western blot); type: cell-based; conditions: 8 hours
T1 construct: AR-positive human prostate cancer cells (LNCaP, cell source: ATCC); host or cells: LNCaP
T1 sequence (P10275 whole entry T878A): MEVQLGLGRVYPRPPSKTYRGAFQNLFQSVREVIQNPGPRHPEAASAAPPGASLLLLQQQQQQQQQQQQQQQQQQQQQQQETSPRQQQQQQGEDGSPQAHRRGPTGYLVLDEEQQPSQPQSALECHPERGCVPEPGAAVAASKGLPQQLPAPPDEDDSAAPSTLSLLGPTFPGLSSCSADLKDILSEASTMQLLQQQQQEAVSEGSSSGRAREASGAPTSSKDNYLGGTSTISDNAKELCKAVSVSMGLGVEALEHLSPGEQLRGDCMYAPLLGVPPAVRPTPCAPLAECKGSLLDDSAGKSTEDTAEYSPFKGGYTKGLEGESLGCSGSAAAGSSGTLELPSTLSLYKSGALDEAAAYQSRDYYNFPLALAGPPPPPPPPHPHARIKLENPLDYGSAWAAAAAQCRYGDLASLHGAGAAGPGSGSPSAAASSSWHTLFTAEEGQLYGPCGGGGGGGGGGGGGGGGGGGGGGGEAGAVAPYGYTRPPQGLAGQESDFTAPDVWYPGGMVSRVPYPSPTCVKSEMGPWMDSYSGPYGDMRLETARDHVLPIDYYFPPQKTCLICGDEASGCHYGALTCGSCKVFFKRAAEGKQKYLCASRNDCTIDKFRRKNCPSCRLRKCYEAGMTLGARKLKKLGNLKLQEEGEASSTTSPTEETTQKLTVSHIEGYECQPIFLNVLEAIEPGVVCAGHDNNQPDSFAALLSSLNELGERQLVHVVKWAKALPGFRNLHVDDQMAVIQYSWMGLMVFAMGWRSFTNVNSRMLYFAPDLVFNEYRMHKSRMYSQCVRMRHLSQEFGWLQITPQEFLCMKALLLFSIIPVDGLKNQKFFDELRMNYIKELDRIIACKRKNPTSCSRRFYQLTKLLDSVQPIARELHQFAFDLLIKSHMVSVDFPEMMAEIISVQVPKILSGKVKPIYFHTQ
T1 sequence (Q96SW2 whole entry partner): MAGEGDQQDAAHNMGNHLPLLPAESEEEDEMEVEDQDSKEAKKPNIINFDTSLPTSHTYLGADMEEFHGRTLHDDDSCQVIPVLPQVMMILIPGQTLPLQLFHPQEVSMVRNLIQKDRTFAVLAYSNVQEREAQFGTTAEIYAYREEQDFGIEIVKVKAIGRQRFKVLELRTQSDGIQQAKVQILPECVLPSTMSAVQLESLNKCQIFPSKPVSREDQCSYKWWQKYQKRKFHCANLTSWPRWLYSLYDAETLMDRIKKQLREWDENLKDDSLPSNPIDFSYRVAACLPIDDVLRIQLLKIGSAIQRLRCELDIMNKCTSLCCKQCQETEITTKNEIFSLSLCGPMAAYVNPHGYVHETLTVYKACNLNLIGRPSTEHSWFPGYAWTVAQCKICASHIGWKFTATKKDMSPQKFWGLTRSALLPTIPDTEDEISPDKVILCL
Procedure: AR-positive human prostate cancer cells (LNCaP, cell source: ATCC) were cultured in RPMI 1640 (ATCC catalog number 30-2001) containing 10% FBS (Hyclone catalog number SH30406.05), and the cells were inoculated into a six-well microplate (Thermo catalog number 140675) at a density of 1.5 × 10^5 cells/well. After the cells were cultured overnight in a carbon dioxide incubator (ESCO), the prepared compound of the present invention and the positive control sample ARV-766 (source: energy chemical) solution of different concentrations were added at a volume of 1 µL/well to make the final concentrations of the compound and the positive control sample reach 100nM and 10nM, respectively. At the same time, the corresponding solvent control was set and cultured for 8 hours. After 8 hours of culture, the culture medium was removed, the cells were washed with PBS, and RIPA lysis buffer containing 1% Protease Inhibitor Cocktail was added. After lysis and centrifugation, the total protein extract was obtained, and the protein concentration in the extract was detected by BCA method. Protein electrophoresis was performed using SDS-PAGE, and then the protein was transferred to a PVDF (Millipore Sigma catalog number PSRP010R5) membrane at a constant voltage of 100V for 60 minutes. The PVDF membrane was placed in a 5% milk powder 1×TBST solution and blocked at room temperature for 1 hour. The primary antibody solution (Anti-Androgen receptor, Cell Signaling Technology catalog number: 5153S; 1:2000 dilution) was prepared and incubated at 4°C overnight. The primary antibody solution was discarded and the PVDF membrane was washed with 1×TBST for 5 minutes each time, three times. The secondary antibody solution (Thermo, catalog number SA5-35571; 1:7500 dilution) was prepared and incubated at room temperature for 1 hour. The secondary antibody solution was discarded and the PVDF membrane was washed with 1×TBST for 5 minutes each time, three times. A dual-color infrared laser imaging system (Licor catalog number Odyssey CLX) was used for Western membrane imaging. The Image Studio software was used to analyze the grayscale of the bands. GAPDH protein bands were also detected for each sample as an internal reference. The AR protein degradation rate of the compound and the positive control sample was calculated based on the grayscale of the protein bands. Among them, "A" means degradation rate ≥ 50%, "B" means 50%> degradation rate ≥ 20%, "C" means 20% degradation rate ≥ 10%, and "D" means degradation rate less than 10%.

With `C[C@H]1CC2(CCN(c3ccc(C(=O)N4CCC(CN5CCC6(COc7cc(N8CCC(=O)NC8=O)ccc76)C(F)(F)C5)CC4)cc3)CC2)CN1c1ccc(C#N)c(Cl)c1` (stereo partly drawn) [A-P-233] the pIC50 (LNCAP cell) was 7.11, the “Degradation rate of AR protein in LNCAP cells” value (“Degradation rate of AR protein” below) (AR protein; 10 nM) was “A (degradation rate ≥ 50%)” and the “Degradation rate of AR protein” value (AR protein; 100 nM) was “A (degradation rate ≥ 50%)”.
For `C[C@H]1CC2(CCN(c3ccc(C(=O)N4CCC(CN5CCN6c7ccc(N8CCC(=O)NC8=O)cc7OCC[C@H]6C5)CC4)cc3)CC2)CN1c1ccc(C#N)c(C(F)(F)F)c1` [A-P-195], the pIC50 (LNCAP cell) was 7.00, the “Degradation rate of AR protein” value (AR protein; 10 nM) was “A (degradation rate ≥ 50%)” and the “Degradation rate of AR protein” value (AR protein; 100 nM) was “A (degradation rate ≥ 50%)”.
For `COc1cc(O[C@H]2C(C)(C)[C@H](NC(=O)c3ccc(N4CCC(F)(CN5CCN6c7ccc(N8CCC(=O)NC8=O)cc7OCC[C@H]6C5)CC4)cc3)C2(C)C)ccc1C#N` [A-P-196], the pIC50 (LNCAP cell) was 6.62, the “Degradation rate of AR protein” value (AR protein; 10 nM) was “B (50%> degradation rate ≥ 20%)” and the “Degradation rate of AR protein” value (AR protein; 100 nM) was “A (degradation rate ≥ 50%)”.
For `COc1cc(O[C@H]2C(C)(C)[C@H](NC(=O)c3ccc(N4CCC(CN5CCN(c6ccc(C(=O)N[C@H]7CCC(=O)NC7=O)c(F)c6)CC5)CC4)cc3)C2(C)C)ccc1C#N` [ARV766, reference compound], the pIC50 (LNCAP cell) was 6.31, the “Degradation rate of AR protein” value (AR protein; 10 nM) was “B (50%> degradation rate ≥ 20%)” and the “Degradation rate of AR protein” value (AR protein; 100 nM) was “A (degradation rate ≥ 50%)”.
In the case of `C[C@H]1CC2(CCN(c3ccc(C(=O)N4CCC(CN5CCC6(CC5)CN(C)c5ccc(N7CCC(=O)NC7=O)cc5O6)CC4)cc3)CC2)CN1c1ccc(C#N)c(Cl)c1` [A-P-235, (S)-2-chloro-4-(8-(4-(4-((7-(2,4-dioxotetrahydropyrimidin-1(2H)-yl)-4-methyl-3,4-dihydrospiro[benzo[b][1,4]oxazin-2,4'-piperidine]-1'-yl)methyl)piperidine-1-carbonyl)phenyl)-3-methyl-2,8-diazaspiro[4.5]decane-2-yl)benzonitrile], the pIC50 (LNCAP cell) was under 4.30, the “Degradation rate of AR protein” value (AR protein; 10 nM) was “A (degradation rate ≥ 50%)” and the “Degradation rate of AR protein” value (AR protein; 100 nM) was “A (degradation rate ≥ 50%)”.
